Assay results taken from patent US20220160669A1, “PARENTERAL NUTRITION FORMULATION” (BAXTER INTERNATIONAL INC., priority 2020, published 2022).

Assays:
Type in all cases: in vivo, pig
[1] = tested on: anti-inflammatory cytokines I1-8, I1-10; assay: Ileal cytokine concentration, anti-inflammatory; design: key: +++ indicate P < 0.01; ++ indicates P < 0.05; + indicates positive trends; = denotes no significant P value; − denotes negative trends; details: compared to standard PN (s-PN)
Text: (§1) Neonatal Yorkshire/Landrace cross bred piglets (n=72; six at a time from the same litter, repeating 12 times) were obtained from Oak Hill Genetics (Ewing, Ill.) after 48-hour sow reared for colostrum consumption and iron supplementation.
(§2) The influence of the respective supplements on inflammation was investigated by determining Il-6, Il-1beta, TNF-alpha and Il-10 serum levels in the intervention groups compared to EN and PN according to Milo et al., Effects of Short-Chain Fatty Acid-Supplemented Total Parenteral Nutrition on Intestinal Pro-Inflammatory Cytokine Abundance. Digestive Diseases and Sciences 2002; 47:2049-2055. Jejunal and ileal samples were homogenized in double-distilled water, and the Bradford protein assay (Biorad, Hercules, Calif., USA) was performed on homogenate and plasma samples. Protein (30 μg) from each sample was denatured by boiling, and proteins were separated by size using 12.5% sodium dodecyl sulfate polyacrylamide gel electrophoresis. Separated proteins were transferred to polyvinylidene difluoride membranes (Biorad) using a semidry transfer apparatus (Biorad). Western blot analysis for TNF-alpha, IL-1beta, Il-10 and IL-6 was performed using porcine-specific polyclonal antibodies (Endogen, Woburn, Mass., USA). A mouse anti-pig monoclonal TNF-alpha antibody was used to detect TNF-alpha ([…]). Rabbit anti-pig polyclonal antibodies specific for IL-1beta and IL-6 were used to detect IL-1beta (17,500 kDa), Il-10 (18,600 kDa) and IL-6 (26,000 kDa). Membranes were developed using the Opti-4CN kit (Biorad) and photographed using the FOTO/Analyst Image Analysis System (Fotodyne, Inc., Hartland, Wis., USA). Densitometry of TNF-alpha, IL-1beta, IL-6, and Il-10 was performed using Collage Image Analysis Software 4.0 (Fotodyne, Inc.). Results are shown in FIG. 15 (Il-6), FIG. 16 (Illbeta), FIG. 17 (TNF-alpha) and FIG. 18 (Il-10).

[2] = tested on: Pro-inflammatory cytokines; assay: Pro-inflammatory cytokines, summary (site not stated); design: key: + denotes a positive effect (compared to standard PN); ++ a very positive effect; − denotes no difference; details: compared to standard PN
Text: as §1, §2

[3] = tested on: pro-inflammatory cytokines I1-1β, I1-6, TNF-α; assay: Ileal cytokine concentration, pro-inflammatory; design: key: +++ indicate P < 0.01; ++ indicates P < 0.05; + indicates positive trends; = denotes no significant P value; − denotes negative trends; details: compared to standard PN (s-PN)
Text: as §1, §2

[4] = tested on: Neonatal Yorkshire/Landrace cross bred piglets; assay: Intestinal histomorphology: villus height and crypt depth; design: key to Villus (total) / Crypt (total): + denotes a positive effect (compared to standard PN); ++ a very positive effect; − denotes no difference; key to Total villus height / Total crypt depth: +++ indicate P < 0.01; ++ indicates P < 0.05; + indicates positive trends; = denotes no significant P value; − denotes negative trends; details: for % Δ from PN, Total C (crypt depth) / % Δ from PN, Total V (villus height): sum over sections; for Crypt (total) / Villus (total): all sections, compared to standard PN; for Total crypt depth / Total villus height: compared to standard PN (s-PN)
Protocol: as §1
Formalin-fixed intestinal samples were embedded in paraffin, sliced to approximately 5-μm thickness with a microtome and stained with hematoxylin and eosin (FIG. 6). Villus height, midvillus width, and crypt depth were measured by using a Nikon Optiphot-2 microscope (Nikon, Melville, N.Y.) and ImagePro Express software (Version 4.5; Media Cybernetics, Inc, Silver Spring, Md.) in 8 to 10 well-oriented villi and crypts. Villus surface area (villus height×midvillus width) was also calculated. In addition, intestinal segment circumference was measured to estimate intestinal surface area. The results are provided in FIGS. 7 through 12 (see there for details). […] The Table summarizes the average difference (in % of each Intervention Group (A, B, C, D) versus the PN Group) of the villus height and the crypt depth in the different sections of the gut, i.e. duodenum, jejunum, ileum and colon. The Intervention Groups show an improved villus height compared to the s-PN Group.

[5] = tested on: pro-inflammatory cytokines I1-1β, I1-6, TNF-α; assay: Jejunal cytokine concentration, pro-inflammatory; details: compared to standard PN (s-PN)
Text: as §1, §2

[6] = tested on: Neonatal Yorkshire/Landrace cross bred piglets; assay: Duodenal mucosal resistance (Ussing chamber), PN-fed neonatal piglets; design: key: + denotes a positive effect (compared to standard PN); ++ a very positive effect; − denotes no difference; details: 10 days, compared to standard PN
[7] = tested on: anti-inflammatory cytokines I1-10; assay: Jejunal cytokine concentration, anti-inflammatory; design: key: +++ indicate P < 0.01; ++ indicates P < 0.05; + indicates positive trends; = denotes no significant P value; − denotes negative trends; details: compared to standard PN (s-PN)
Text: as §1, §2

## CCCC(=O)OCC(COC(=O)CCC)OC(=O)CCC [Tributyrin]
[1]; 10 mmol/L
  Ileal Cytokine Concentration (more anti-inflammatory cytokines I1-8, I1-10): −
[1]; 30 mmol/L
  Ileal Cytokine Concentration (more anti-inflammatory cytokines I1-8, I1-10): +
[2]; 10 mmol/L in PN
  Pro-inflammatory cytokines: −
[2]; 30 mmol/L in PN
  Pro-inflammatory cytokines: +
[3]; 10 mmol/L
  Ileal Cytokine Concentration (less pro-inflammatory cytokines I1-1β, I1-6, TNF-α): =
[3]; 30 mmol/L
  Ileal Cytokine Concentration (less pro-inflammatory cytokines I1-1β, I1-6, TNF-α): +
[4]; 10 mmol/L TPN
  average duodenal crypt length (crypt depth, FIG. 8): gave the best results
  average duodenal villous length (FIG. 7): only slightly below the mean values determined for Groups B and D
  average ileal crypt depth (FIG. 11): significant difference
  average jejunal crypt depth (FIG. 10): lower
[4]; 10 mmol/L TPN (Groups A, C, D)
  % Δ from PN, Colon C (crypt depth): +9%
  % Δ from PN, Duodenum C (crypt depth): +11%
  % Δ from PN, Duodenum V (villus height): +32%
  % Δ from PN, Ileum C (crypt depth): +17%
  % Δ from PN, Ileum V (villus height): +14%
  % Δ from PN, Jejunum C (crypt depth): −8%
  % Δ from PN, Jejunum V (villus height): +14%
  % Δ from PN, Total Total (crypt + villus): +89%
  % Δ from PN, Total C (crypt depth): +29%
  % Δ from PN, Total V (villus height): +60%
[4]; 10 mmol/L in PN
  Crypt (total): +
  Villus (total): +
[4]; 10 mmol/L
  Total crypt depth: +
  Total villus height: +
[4]; 30 mmol/L TPN
  average duodenal crypt length (crypt depth, FIG. 8): better crypt depth than S-PN, but is not as good as Groups A, C and D
  average duodenal villous length (FIG. 7): increased villous length compared to the other study groups
[4]; 30 mmol/L TPN (Group B)
  % Δ from PN, Colon C (crypt depth): +10%
  % Δ from PN, Duodenum C (crypt depth): +12%
  % Δ from PN, Duodenum V (villus height): +12%
  % Δ from PN, Ileum C (crypt depth): +27%
  % Δ from PN, Ileum V (villus height): +31%
  % Δ from PN, Jejunum C (crypt depth): −14%
  % Δ from PN, Jejunum V (villus height): +5%
  % Δ from PN, Total Total (crypt + villus): +111%
  average jejunal crypt depth (FIG. 10): lower
  % Δ from PN, Total C (crypt depth): +63%
  % Δ from PN, Total V (villus height): +48%
[4]; 30 mmol/L in PN
  Crypt (total): ++
  Villus (total): ++
[4]; 30 mmol/L
  Total crypt depth: +
  Total villus height: +
[4]; Group B, printed in b62 as 10 mmol/L TPN
  average jejunal villous length (FIG. 9): relatively low
[5]; 10 mmol/L
  Jejunal Cytokine Concentration (less pro-inflammatory cytokines I1-1β, I1-6, TNF-α): ++ (++ indicates P < 0.05)
[5]; 30 mmol/L
  Jejunal Cytokine Concentration (less pro-inflammatory cytokines I1-1β, I1-6, TNF-α): ++ (++ indicates P < 0.05)
[6]; 10 mmol/L in PN
  Tight junctions: −
[6]; 30 mmol/L in PN
  Tight junctions: −
[7]; 10 mmol/L
  Jejunal Cytokine Concentration (more anti-inflammatory cytokines I1-8, I1-10): =
[7]; 30 mmol/L
  Jejunal Cytokine Concentration (more anti-inflammatory cytokines I1-8, I1-10): +
